Data published in patent publication US20060276440A1, “Treatment of inflammatory disorders” (priority 2005, published 2006).
“Also recorded” adds a separate entry of the source. Where two headings read alike, the source gives them in different places. Each block holds one molecule with its values, some of them ahead of it.

Legend:
Assay type in all cases: cell-based, human
[1] = test system: MMP-13; assay: IL-1/OSM-stimulated pro-MMP-13 production in SW-1353 cells (ELISA); conditions: for IC50: Homo sapiens; for effect on OSM/IL-1-mediated pro-MMP-13 production: up to 1.5 μM
From the text: To test the compounds identified in the preliminary reporter (luciferase) activity […]® line 4A1 screen for inhibition of OSM signaling in a more physiologically relevant environment, a human cell line involved in an inflammatory disease was adapted. The human cartilage cell line SW-1353 was selected.
In the human cartilage cell line SW-1353, while IL-1 is believed to activate expression of collagenases to a small degree and OSM is believed to have no effect on collagenase expression, a combination of IL-1 and OSM is believed to lead to a synergistic activation of collagenases to much higher levels (S. Cowell et al., Biochem J 331 (Pt 2), 453 (Apr. 15, 1998). Regulation of MMP-13 in SW-1353 cells is, therefore, believed to provide a biomarker which can be used to monitor IL-1/OSM-mediated signal transduction events in secondary assays.
(§1) The same supernatants of culture media used in the primary screen were assayed for IL-1/OSM-stimulated pro-MMP-13 production and MMP-2 production by enzyme-linked immunosorbent assay (ELISA).
(§2) For matrix metalloproteinase (MMP) measures, SW1353 cells were grown to confluence in 24 well plates, washed in DMEM (with Ham's F12) and placed in 500 ul of serum free DMEM/F-12 with 0.2% lactalbumin hydrosylate with and without OsM/IL-1. After 24 hrs, supernatants were collected and the amounts of proMMP13, totalMMP2, and proMMP1 were measured using Quantikine® ELISA kit for human MMPs (R & D systems, Minneapolis, Minn.). All MMP measures were normalized to viable cell numbers based on a tetrazolium (MTS) colorimetric measure (Promega, Madison, Wis.).

[2] = test system: OSM signaling; assay: […] 4A1 cell line (A549) OSM-stimulated luciferase reporter assay; conditions: for IC50: Homo sapiens, A549; for effect on OSM-mediated reporter activity: up to 1.5 μM
Description: Cell line 4A1 was established in A549 cells (a human lung cancer cell line) using BV32, a vector that carries both the luciferase and GFP reporters. Assay development was performed to optimize the conditions of the OSM-response in the 4A1 […]® line.
(§3) Reporter activities of Sentinel® clones were measured using the Steady-Glo® Luciferase assay system (Promega, Madison, Wis.), according to the manufacturer's instructions, and were normalized to cell numbers based on nucleic acid quantification (CyQuant® cell proliferations assay, Molecular Probes/Invitrogen, Carlsbad, Calif.). In order to identify potential anti-inflammatory compounds, the OSM-responding Sentinel® clone 4A1 was used for a library screen of approximately 1800 compounds.

[3] = test system: MMP-2; assay: MMP-2 production in SW1353 cells (ELISA, control); conditions: SW-1353; FIG. 5
Description: MMP-2 production can be used as control for the potential side-effects of compounds. This is because MMP-2 levels are not believed to change in response to IL-1/OSM.
as §1, §2
Multiple control assays were performed to investigate the selectivity of CA4 action. Matrix metalloproteinase-2 (MMP-2) production in SW1353 cells was tested. Mutation of MMP-2 causes a multicentric osteolysis and arthritis syndrome (Martignetti et al., Nat Genet 28, 261-265 (2001) the entire contents of which are incorporated herein by reference), and theoretically its expression should not be affected in treating RA. CA4 at approximately 110 nM had no effect on production of MMP-2 (FIG. 12E). An A549 Sentinel line that responded to TGF-β was then tested.

[4] = test system: 4A1 reporter activity; assay: Activation of 4A1 Sentinel luciferase reporter by cytokines; conditions: for maximum activation of 4A1 luciferase reporter over background / EC50, induced reporter activity of 4A1: 4A1 cells; for EC50, induced reporter activity of 4A1: IL-1; for stimulatory effect on 4A1 reporter activity: other gp-130-binding cytokine family members, data not shown
Description: as §3
Sentinel lines were developed by utilizing promoter trapping technology in combination with positive and negative selections to efficiently deliver reporter genes into endogenously regulated genetic sites. Using this approach, a Sentinel cell line, 4A1, in A549 lung carcinoma cells that responded specifically to OSM and IL-1 stimulation among a panel of cytokines and active compounds was established (FIG. 9A).
OSM dose-dependently activated the luciferase reporter activity of 4A1 5-7 folds over background with EC50 of approximately 50 ng/ml (FIGS. 9A and B). […] When OSM and IL-1 were added together to 4A1 cells, the reporter activity appeared to be moderately more than the sum of individual activities obtained when OSM and IL-1 added separately (FIG. 9D). However, the luciferase activity of 4A1 appeared to respond predominantly to OSM, because OSM typically produced 5-7-fold maximum activation whereas IL-1 only produced 2-fold maximum activation (FIGS. 9B and C).

[5] = 4A1 cell line, primary screen (Table 1), read-out: IC50, inhibition of OSM-stimulated (luciferase) reporter activity
[6] = 4A1 cells, mean (Examples 7, 10), read-out: IC50 values by luciferase reporter activity (OSM-stimulated)
[7] = SW1353 cells, mean (Examples 8, 10), read-out: IC50 values by pro-MMP-13 (OSM/IL-1-mediated production)

Molecule: COc1cc2c(c(OC)c1OC)-c1ccc(OC)c(=O)cc1[C@@H](NC(C)=O)CC2 (atropisomer, axis not shown) [Colchicine (4), colchicine]
- reduction of signal (MMP-13 secondary assay) ([1]; at 4 μM, SW-1353): approximately 83%

- IC50 [2, 5]: 3700 nM
Molecule: O=c1oc2ccccc2c(O)c1Cc1c(O)c2ccccc2oc1=O [Dicumarol (11), 4-hydroxy-3-((4-hydroxy-2-oxo-2H-chromen-3-yl)methyl)-2H-chromen-2-one]

- IC50 [2, 5]: 3500 nM
Molecule: C/C=C(/C(=C/C)c1ccc(O)cc1)c1ccc(O)cc1 [Dienestrol (10), 4-((2E,4E)-4-(4-hydroxyphenyl)hexa-2,4-dien-3-yl)phenol]

- IC50 [2, 5]: 800 nM
Molecule: COC(=O)Nc1nc2cc(Sc3ccccc3)ccc2[nH]1 [Fenbendazole (6), [5-(phenylthio)-1H-benzimidazol-2-yl]carbamic acid methyl ester]

Molecule: C=C1C(=O)[C@@]23[C@H](O)C[C@@H]4C(C)(C)CC[C@H](O)[C@@]4(CO)[C@@H]2CC[C@@H]1[C@H]3O [Kamebakaurin, reference compound]
- effect of pathway inhibitors on OSM-stimulated reporter activity ([2]; 4A1 cells, FIG. 10A-E): inhibited the reporter activity in a dose-dependent manner

- IC50 [2, 5]: 400 nM
Molecule: Clc1ccc2ncnc(NCc3ccc4c(c3)OCO4)c2c1 [MBCQ (5), 4-[[3,4-(Methylenedioxy)benzyl]amino]-6-chloroquinazoline]

- IC50 [2, 5]: 20 nM
Molecule: COc1c(C)c2c(c(O)c1C/C=C(\C)CCC(=O)O)C(=O)OC2 [Mycophenolic acid (3), 6-(4-Hydroxy-6-methoxy-7-methyl-3-oxo-5-phthalanyl)-4-methyl-4-hexenoic acid]

Molecule: COC(=O)Nc1nc2ccc(C(=O)c3cccs3)cc2[nH]1 [Nocodazole, reference compound]
- IC50 [2, 6]: 104 nM
- IC50 [1, 7]: > 400 nM

Molecule: COc1cccc(-c2cc(=O)c3ccccc3o2)c1N [PD98059, reference compound]
- effect of pathway inhibitors on OSM-stimulated reporter activity ([2]; 4A1 cells, FIG. 10A-E): inhibited the reporter activity in a dose-dependent manner

- IC50 ([1]; SW1353, SW-1353, IL-1/OSM-stimulated, secondary screen (Example 2), read-out: IC50, inhibition of MMP-13 (pro-MMP-13) production): 32000 nM
Molecule: Cc1ccc(C(=O)Cn2c3c(sc2=N)CCCC3)cc1 [Pifithrine-alpha (12), 2-(2-imino-4,5,6,7-tetrahydrobenzothiazol-3-yl)-1-p-tolylethanone]
- inhibitory effect on MMP-13 expression compared to MMP-2 expression [3]: greater inhibitory effects on MMP-13 expression compared to MMP-2 expression; also recorded: preferentially inhibit MMP-13 expression compared to MMP-2 expression

Molecule: COc1cc([C@@H]2c3cc4c(cc3[C@H](O)[C@H]3COC(=O)[C@H]23)OCO4)cc(OC)c1OC [Podophyllotoxin, reference compound]
- IC50 [2, 6]: 277 nM
- IC50 [1, 7]: 54.9 nM

Molecule: C[S+]([O-])c1ccc(-c2nc(-c3ccncc3)c(-c3ccc(F)cc3)[nH]2)cc1 (stereo not shown) [SB203580, reference compound]
- effect of pathway inhibitors on OSM-stimulated reporter activity [2]: inhibited the reporter activity in a dose-dependent manner

Molecule: CC(=O)O[C@H]1C(=O)[C@@]2(C)[C@H]([C@H](OC(=O)c3ccccc3)[C@]3(O)C[C@H](OC(=O)[C@H](O)[C@@H](NC(=O)c4ccccc4)c4ccccc4)C(C)=C1C3(C)C)[C@]1(OC(C)=O)CO[C@@H]1C[C@@H]2O [Taxol, reference compound]
- effect on 4A1 reporter activity ([2]; under 200 nM, data not shown): dose-dependently inhibited
- effect on MMP-13 production ([1]; data not shown): no effect

- IC50 [2, 6]: 3.4 ± 0.6 nM
- IC50 [1, 7]: 11.6 ± 5.2 nM
Molecule: CC[C@]1(O)C[C@@H]2CN(CCc3c([nH]c4ccccc34)[C@@](C(=O)OC)(c3cc4c(cc3OC)N(C)[C@H]3[C@@](O)(C(=O)OC)[C@H](OC(C)=O)[C@]5(CC)C=CCN6CC[C@]43[C@@H]65)C2)C1 [Vinbalstine, vinblastine, reference compound]

- IC50 [2, 5]: 1900 nM
Molecule: CC1CCC2(C)CCC3C(=CCC4(C)C3CCC3C(C)(C(=O)O)C(C)CCC34C)C2C1C (stereo not drawn) [β-boswellic acid (7), 1,2,3,4,4a, 5,6,6a, 6b, 7,8,8a, 9, 10, 11, 12, 12a, 14, 14a, 14b-icosahydro-3,4,8a,11,12,14a,14b-heptamethylpicene-4-carboxylic acid]

- maximum activation of 4A1 luciferase reporter over background [4]: 2 fold
- EC50, induced reporter activity of 4A1 [4]: 0.028 ± 0.01 ng/mL
- EC50, induced reporter activity of 4A1 ([4]; listed as IL-1): 0.028 ng/mL
Molecule: IL-1β: cytokine from Peprotech used to stimulate cells

- stimulatory effect on 4A1 reporter activity [4]: no stimulatory effect
Molecule: IL-6: member of the gp-130-binding cytokine family

Molecule: JAK inhibitor I [reference compound]
- effect of pathway inhibitors on OSM-stimulated reporter activity ([2]; 4A1 cells, FIG. 10A-E): inhibited the reporter activity in a dose-dependent manner

- stimulatory effect on 4A1 reporter activity [4]: no stimulatory effect
Molecule: LIF: member of the gp-130-binding cytokine family

- maximum activation of 4A1 luciferase reporter over background [4]: 5-7 fold
Molecule: OSM: proinflammatory cytokine, 28-kD glycoprotein of the gp130-binding cytokine family

Molecule: cytochalacin B [reference compound]
- effect on OSM-mediated reporter activity ([2]; 4A1 cells, data not shown): did not have effect
- effect on OSM/IL-1-mediated pro-MMP-13 production ([1]; SW1353 cells, data not shown): did not have effect

Molecule: cytochalacin D [reference compound]
- effect on OSM-mediated reporter activity ([2]; 4A1 cells, data not shown): did not have effect
- effect on OSM/IL-1-mediated pro-MMP-13 production ([1]; SW1353 cells, data not shown): did not have effect

- stimulatory effect on 4A1 reporter activity [4]: no stimulatory effect
B1: CNTF: member of the gp-130-binding cytokine family (protein, UniProt P26441 1-200, looked up)
Ciliary neurotrophic factor: MAFTEHSPLTPHRRDLCSRSIWLARKIRSDLTALTESYVKHQGLNKNINLDSADGMPVASTDQWSELTEAERLQENLQAYRTFHVLLARLLEDQQVHFTPTEGDFHQAIHTLLLQVAAFAYQIEELMILLEYKIPRNEADGMPINVGDGGLFEKKLWGLKVLQELSQWTVRSIHDLRFISSHQTGIPARGSHYIANNKKM

- stimulatory effect on 4A1 reporter activity [4]: no stimulatory effect
B2: IL-11: member of the gp-130-binding cytokine family (protein, UniProt P20809 22-199, looked up)
Interleukin-11: PGPPPGPPRVSPDPRAELDSTVLLTRSLLADTRQLAAQLRDKFPADGDHNLDSLPTLAMSAGALGALQLPGVLTRLRADLLSYLRHVQWLRRAGGSSLKTLEPELGTLQARLDRLLRRLQLLMSRLALPQPPPDPPAPPLAPPSSAWGGIRAAHAILGGLHLTLDWAVRGLLLLKTRL

- stimulatory effect on 4A1 reporter activity [4]: no stimulatory effect
B3: CT-1: member of the gp-130-binding cytokine family (protein, UniProt Q16619 1-201, looked up)
Cardiotrophin-1: MSRREGSLEDPQTDSSVSLLPHLEAKIRQTHSLAHLLTKYAEQLLQEYVQLQGDPFGLPSFSPPRLPVAGLSAPAPSHAGLPVHERLRLDAAALAALPPLLDAVCRRQAELNPRAPRLLRRLEDAARQARALGAAVEALLAALGAANRGPRAEPPAATASAASATGVFPAKVLGLRVCGLYREWLSRTEGDLGQLLPGGSA
